Measured values from ChEMBL document CHEMBL1140762, “Acridones circumvent P-glycoprotein-associated multidrug resistance (MDR) in cancer cells” (Bioorg Med Chem, 2008).

Tests used:
[1] = Dissociation constant, pKa of the compound; assay type: physicochemical
[2] = Lipophilicity, log P of the compound; assay type: physicochemical; settings: octanol/water
[3] = molecular target: T1, ATP-dependent translocase ABCB1 (Homo sapiens, UniProt P08183); assay: Inhibition of P-glycoprotein in MDR human KBChR-8-5 cells assessed as uptake of vinblastin relative to control; assay type: cell-based; set-up: concentration or dose not given beside the values
[4] = molecular target: T1, ATP-dependent translocase ABCB1; assay: Inhibition of P-glycoprotein in MDR human KBChR-8-5 cells assessed as retention of [3H]VLB after 2 hrs; assay type: cell-based; set-up: concentration or dose not given beside the values
KB-Vi = assay: Displacement of [3H]azidopine from human P-glycoprotein in KB-Vi cells; assay type: cell-based; set-up: concentration or dose not given beside the values
MDR = assay: Cytotoxicity against MDR human KBChR cells; assay type: functional, cell-based

T1 sequence (P08183 whole entry): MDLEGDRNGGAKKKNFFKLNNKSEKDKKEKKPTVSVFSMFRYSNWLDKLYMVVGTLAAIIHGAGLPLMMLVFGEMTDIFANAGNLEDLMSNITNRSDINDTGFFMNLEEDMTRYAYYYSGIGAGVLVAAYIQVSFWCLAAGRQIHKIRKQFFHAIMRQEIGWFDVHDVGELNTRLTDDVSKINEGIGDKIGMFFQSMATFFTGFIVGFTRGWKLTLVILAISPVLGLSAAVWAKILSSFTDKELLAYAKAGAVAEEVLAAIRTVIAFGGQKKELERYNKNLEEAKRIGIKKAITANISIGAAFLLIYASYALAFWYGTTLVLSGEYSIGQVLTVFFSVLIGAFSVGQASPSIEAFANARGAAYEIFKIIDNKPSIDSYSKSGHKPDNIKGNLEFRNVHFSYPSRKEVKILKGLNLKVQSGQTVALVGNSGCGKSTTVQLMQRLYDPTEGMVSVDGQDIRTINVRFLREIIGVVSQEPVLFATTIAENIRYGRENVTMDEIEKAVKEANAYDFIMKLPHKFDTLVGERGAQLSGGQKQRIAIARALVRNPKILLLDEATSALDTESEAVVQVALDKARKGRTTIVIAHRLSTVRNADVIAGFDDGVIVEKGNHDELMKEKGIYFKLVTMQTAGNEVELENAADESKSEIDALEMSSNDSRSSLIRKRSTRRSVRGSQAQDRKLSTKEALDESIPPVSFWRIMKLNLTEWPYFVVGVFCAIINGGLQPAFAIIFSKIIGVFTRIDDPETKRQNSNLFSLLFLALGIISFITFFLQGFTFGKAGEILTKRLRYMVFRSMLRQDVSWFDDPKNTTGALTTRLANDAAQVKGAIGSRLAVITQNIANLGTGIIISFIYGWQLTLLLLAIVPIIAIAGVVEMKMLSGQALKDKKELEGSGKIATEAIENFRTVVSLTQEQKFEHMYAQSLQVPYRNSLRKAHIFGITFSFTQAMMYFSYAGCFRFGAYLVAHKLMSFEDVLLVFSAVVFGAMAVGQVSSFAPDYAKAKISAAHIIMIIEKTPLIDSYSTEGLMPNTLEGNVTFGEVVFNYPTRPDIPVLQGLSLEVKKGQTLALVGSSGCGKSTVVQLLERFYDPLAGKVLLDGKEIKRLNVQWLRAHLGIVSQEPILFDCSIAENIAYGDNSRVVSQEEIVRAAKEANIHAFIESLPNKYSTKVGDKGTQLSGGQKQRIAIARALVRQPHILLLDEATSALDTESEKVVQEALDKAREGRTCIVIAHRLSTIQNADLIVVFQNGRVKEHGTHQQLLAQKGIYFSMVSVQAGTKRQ

Structure (SMILES)	pKa [1]	logP [2]	Activity [3]	Activity [4]	Activity (KB-Vi)	IC10 (MDR)	IC50 (MDR)
O=c1c2ccccc2n(CCCCl)c2ccc(Cl)cc12	8.65	1.38	880%	40%	83%	1.35 µM	15 µM
O=c1c2ccccc2n(CCCCN(CCO)CCO)c2ccc(Cl)cc12	4.8	1.67	1219%	74%	20%	0.6 µM	5 µM
O=c1c2ccccc2[nH]c2ccc(Cl)cc12	8.29	2.06	715%	49%	85%	1.41 µM	18 µM
O=c1c2ccccc2n(CCCN(CCO)CCO)c2ccc(Cl)cc12	4.8	1.47	1017%	66%	40%	1.2 µM	8.7 µM
CCN(CC)CCCn1c2ccccc2c(=O)c2cc(Cl)ccc21	5.37	1.54	948%	47%	80%	1 µM	12.5 µM
O=c1c2ccccc2n(CCCCCl)c2ccc(Cl)cc12	8.85	1.68	982%	60.5%	70%	1.25 µM	10.8 µM
CCN(CC)CCCCn1c2ccccc2c(=O)c2cc(Cl)ccc21	5.45	1.9	1356%	77.2%	20%	0.62 µM	9.1 µM

Now from value to molecule, other results behind:

pKa [1]	logP [2]	Activity [3]	Activity [4]	Structure (SMILES)	Activity (KB-Vi)	IC10 (MDR)	IC50 (MDR)
5.28	1.48	1010%	51%	CN1CCN(CCCn2c3ccccc3c(=O)c3cc(Cl)ccc32)CC1	45%	0.8 µM	9 µM
4.91	1.89	1690%	76%	O=c1c2ccccc2n(CCCCN2CCOCC2)c2ccc(Cl)cc12	15%	0.72 µM	6 µM
4.87	1.64	1372%	62%	O=c1c2ccccc2n(CCCN2CCOCC2)c2ccc(Cl)cc12	30%	1.15 µM	10.5 µM
5.28	1.74	1010%	79%	O=c1c2ccccc2n(CCCCN2CCCC2)c2ccc(Cl)cc12	30%	1.85 µM	12.5 µM
5.36	2.01	1855%	77%	O=c1c2ccccc2n(CCCCN2CCCCC2)c2ccc(Cl)cc12	15%	0.6 µM	5.2 µM
5.61	1.95	1420%	75%	CN1CCN(CCCCn2c3ccccc3c(=O)c3cc(Cl)ccc32)CC1	20%	0.8 µM	8 µM
5.39	1.52	927%	54.5%	O=c1c2ccccc2n(CCCN2CCCCC2)c2ccc(Cl)cc12	50%	1.25 µM	15.5 µM
5.21	1.55	988%	56%	O=c1c2ccccc2n(CCCN2CCCC2)c2ccc(Cl)cc12	50%	0.9 µM	14 µM
5.26	1.76	1252%	56.5%	O=c1c2ccccc2n(CCCN2CCN(CCO)CC2)c2ccc(Cl)cc12	35%	0.74 µM	7.5 µM
5.26	2.25	2010%	80.5%	O=c1c2ccccc2n(CCCCN2CCN(CCO)CC2)c2ccc(Cl)cc12	10%	0.46 µM	4.5 µM
